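These data come from cells grown in 96-well plates and exposed to compound for 48 hours at five concentrations. Here, GI50 denotes the concentration required for 50% inhibition of growth.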 The source made the active and inactive calls. No stated cut-off is given here; in the data, active = GI50 up to about 1.1 µM and inactive = higher.
Columns and labels:
Assay in all cases: NCI-60 cell line screen, 48 h
MDA-N = system: MDA-N
NCI/ADR-RES = system: NCI/ADR-RES
OVCAR-5 = system: OVCAR-5
M14 = system: M14
OVCAR-4 = system: OVCAR-4
SK-OV-3 = system: SK-OV-3
A498 = system: A498
HCC 2998 = system: HCC 2998
K562 = system: K562
SF-268 = system: SF-268
IGROV-1 = system: IGROV-1
HOP-92 = system: HOP-92
OVCAR-3 = system: OVCAR-3
MDA-MB-231 = system: MDA-MB-231
UO-31 = system: UO-31
A549 = system: A549
UACC-257 = system: UACC-257
CAKI-1 = system: CAKI-1
EKVX = system: EKVX
NCI-H226 = system: NCI-H226
HCT-15 = system: HCT-15
KM12 = system: KM12
U-251 = system: U-251
SK-MEL-5 = system: SK-MEL-5
SF-295 = system: SF-295
SK-MEL-2 = system: SK-MEL-2
Malme-3M = system: Malme-3M
CCRF-CEM = system: CCRF-CEM
UACC-62 = system: UACC-62
RXF 393 = system: RXF 393
T47D = system: T47D
COLO 205 = system: COLO 205
OVCAR-8 = system: OVCAR-8
SN12C = system: SN12C
HT-29 = system: HT-29
SNB-19 = system: SNB-19
MOLT-4 = system: MOLT-4
TK-10 = system: TK-10
ACHN = system: ACHN
SK-MEL-28 = system: SK-MEL-28
RPMI-8226 = system: RPMI-8226
SF-539 = system: SF-539
HCT-116 = system: HCT-116
MDA-MB-435 = system: MDA-MB-435
SW-620 = system: SW-620
SNB-75 = system: SNB-75
PC-3 = system: PC-3
MCF7 = system: MCF7
DU-145 = system: DU-145
NCI-H460 = system: NCI-H460
HOP-62 = system: HOP-62
NCI-H522 = system: NCI-H522
LOX IMVI = system: LOX IMVI
Hs-578T = system: Hs-578T
786-0 = system: 786-0
NCI-H23 = system: NCI-H23
BT-549 = system: BT-549
HL-60 = system: HL-60

Measured: GI50

CCN(CC(=O)O)CC(=O)O
> 100 µM: HCT-15
inactive: MDA-N > 100 µM | NCI/ADR-RES > 100 µM | OVCAR-5 > 100 µM | M14 > 100 µM | OVCAR-4 > 100 µM | SK-OV-3 > 100 µM | A498 > 100 µM | HCC 2998 > 100 µM | K562 > 100 µM | SF-268 > 100 µM | IGROV-1 > 100 µM | HOP-92 > 100 µM | OVCAR-3 > 100 µM | MDA-MB-231 > 100 µM | UO-31 > 100 µM | A549 > 100 µM | UACC-257 > 100 µM | CAKI-1 > 100 µM | EKVX > 100 µM | NCI-H226 > 100 µM | KM12 > 100 µM | U-251 > 100 µM | SK-MEL-5 > 100 µM | SF-295 > 100 µM | SK-MEL-2 > 100 µM | Malme-3M > 100 µM | CCRF-CEM > 100 µM | UACC-62 > 100 µM | RXF 393 > 100 µM | T47D > 100 µM | COLO 205 > 100 µM | OVCAR-8 > 100 µM | SN12C > 100 µM | HT-29 > 100 µM | SNB-19 > 100 µM | MOLT-4 > 100 µM | TK-10 > 100 µM | ACHN > 100 µM | SK-MEL-28 > 100 µM | RPMI-8226 > 100 µM | SF-539 > 100 µM | HCT-116 > 100 µM | MDA-MB-435 > 100 µM | SW-620 > 100 µM | SNB-75 > 100 µM | PC-3 > 100 µM | MCF7 > 100 µM | DU-145 > 100 µM | NCI-H460 > 100 µM | HOP-62 > 100 µM | NCI-H522 > 100 µM | LOX IMVI > 100 µM | Hs-578T > 100 µM | 786-0 > 100 µM | NCI-H23 > 100 µM | BT-549 > 100 µM

Cc1ccc(S(=O)ON2CCC(C(=O)O)(c3ccccc3)CC2)cc1 (stereo not drawn)
inactive: MDA-N > 100 µM | NCI/ADR-RES > 100 µM | OVCAR-5 > 100 µM | M14 > 100 µM | OVCAR-4 > 100 µM | SK-OV-3 > 100 µM | A498 > 100 µM | HCC 2998 > 100 µM | K562 > 100 µM | SF-268 > 100 µM | IGROV-1 > 100 µM | HOP-92 45.5 µM | OVCAR-3 > 100 µM | MDA-MB-231 > 100 µM | UO-31 > 100 µM | A549 > 100 µM | UACC-257 > 100 µM | CAKI-1 > 100 µM | EKVX 33.3 µM | NCI-H226 > 100 µM | KM12 > 100 µM | U-251 > 100 µM | SK-MEL-5 > 100 µM | SF-295 > 100 µM | Malme-3M > 100 µM | CCRF-CEM > 100 µM | UACC-62 > 100 µM | RXF 393 > 100 µM | T47D > 100 µM | COLO 205 > 100 µM | OVCAR-8 > 100 µM | SN12C > 100 µM | HT-29 > 100 µM | SNB-19 > 100 µM | MOLT-4 > 100 µM | TK-10 > 100 µM | ACHN > 100 µM | SK-MEL-28 > 100 µM | RPMI-8226 > 100 µM | HL-60 > 100 µM | HCT-116 > 100 µM | MDA-MB-435 > 100 µM | SW-620 > 100 µM | SNB-75 > 100 µM | PC-3 > 100 µM | MCF7 > 100 µM | DU-145 > 100 µM | NCI-H460 > 100 µM | HOP-62 > 100 µM | NCI-H522 > 100 µM | LOX IMVI > 100 µM | Hs-578T > 100 µM | NCI-H23 > 100 µM | BT-549 > 100 µM
active: 786-0 0.0773 µM
> 100 µM: HCT-15
